The subject of series [1] is passive cutaneous anaphylaxis. Kind of series: Inhibition of passive cutaneous anaphylaxis in rats (oral), % versus controls. Format: in vivo. The conditions noted are these: rat, os. The protocol: The 5-(2-hydroxy-3-thiopropoxy)chromone-2-carboxylic acids, their salts and their esters have been tested in rats by oral route to evaluate their ability to inhibit passive cutaneous anaphylaxis in animals sensitized to egg albumin and Bordetella pertussis.
The percentages of inhibition, in comparison with the controls, of the allergic reaction induced by passive cutaneous anaphylaxis in rats treated with 0.1 ml of an homologous antiserum diluted 1/10 and injected by intradermal route, are summarized in table I.

A further series in a line: LD50 mouse, os. The conditions noted are these: in vivo, po.
Series [2] relates to passive cutaneous anaphylaxis. The experiment in a line: ED50 for inhibition of passive cutaneous anaphylaxis in rats sensitized to egg albumin and Bordetella pertussis, oral and intravenous. Format: in vivo. The note with it: Table IV, rat. From the text:
The ability of the 5-(2-hydroxy-3-thiopropoxy) chromone-2-carboxylic acids of the present invention and of the salts and esters thereof of inhibiting--by oral as well as by intravenous route--the passive cutaneous anaphylaxis in rats sensitized to egg albumin and Bordetella pertussis has been compared to that of two reference compounds: […]

Setting [3] is: po, Table I, °° significant P ≤ 0.01, read-out: Δ % in comparison with controls (inhibition of passive cutaneous anaphylaxis).
[4] abbreviates: po, Table I, °° P ≤ 0.01, ° P ≤ 0.05 (product B), read-out: Δ % in comparison with controls (inhibition of passive cutaneous anaphylaxis).
[5] abbreviates: po, Table III, 10 mg/kg, °° P ≤ 0.01, * non significant (product D), read-out: Δ % in comparison with controls (inhibition of passive cutaneous anaphylaxis).
Where [6] appears, read: po, Table III, °° P ≤ 0.01, * non significant (product D), read-out: Δ % in comparison with controls (inhibition of passive cutaneous anaphylaxis).

Structures can show the parent of a compound that is named as a salt. Where two headings read alike, the source gives them in different places.

As a reminder, the LD50 is the dose expected to kill half of the subjects tested. A higher LD50 goes with a less toxic substance. On to `CCCCSCC(O)COc1cccc2oc(C(=O)OCC)cc(=O)c12` (stereo not shown) [CM 57193, Ethyl 5-(2-hydroxy-3-butylthiopropoxy)chromone-2-carboxylate], for which the change in vivo at 50 mg/kg in series [1] (setting [3]) is -47.6%. Further, in series [1] (setting [4]), the change in vivo at 100 mg/kg is -70.8%. The LD50 in the series “LD50 mouse, os” is above 1000 mg/kg.

Regarding `CCCCSCC(O)COc1cccc2oc(C(=O)O)cc(=O)c12.O` (stereo not shown) [CM 57194, 5-(2-hydroxy-3-butylthiopropoxy)chromone-2-carboxylic acid monohydrate], in series [1] (setting [4]), the change in vivo at 100 mg/kg was -55.4%. For the same compound, the LD50 in “LD50 mouse, os” was above 1000 mg/kg.

As a reminder, the ED50 is the dose at which the effect has come halfway, by size or by number of responders. On to `CCOC(=O)c1cc(=O)c2c(OCC(O)CSC)cccc2o1` (stereo not shown) [CM 57201, ethyl 5-(2-hydroxy-3-methylthiopropoxy)chromone-2-carboxylate], for which the “Δ % in comparison with controls (inhibition of passive cutaneous anaphylaxis)” value in series [1] (Table II, 10 mg/kg, °° P ≤ 0.01, * non significant (product C)) is recorded as -65.55%. Also, the change in vivo at 10 mg/kg in series [1] (po, Table I, 10 mg/kg, °° significant P ≤ 0.01, read-out: Δ % in comparison with controls (inhibition of passive cutaneous anaphylaxis)) is -65.5%. Moreover, in series [1] (setting [4]), the change in vivo at 100 mg/kg was -75.1%. The median effective dose (ED50) was 0.11 mg/kg in series [2] (i.v., read-out: ED50) and 5.39 mg/kg in series [2] (po, os, read-out: ED50). In “LD50 mouse, os”, this compound displayed an LD50 above 1000 mg/kg.

Take `CSCC(O)COc1cccc2oc(C(=O)O)cc(=O)c12` (stereo not shown) [CM 57202, 5-(2-hydroxy-3-methylthiopropoxy)chromone-2-carboxylic acid]: the change in vivo at 10 mg/kg in series [1] (setting [5]) was -53%. In addition, the change in vivo at 100 mg/kg in series [1] (setting [6]) is -70.4%. In addition, the ED50 was 0.13 mg/kg in series [2] (i.v., read-out: ED50) and 38.1 mg/kg in series [2] (po, os, read-out: ED50).

Consider `CCOC(=O)c1cc(=O)c2c(OCC(O)CSC(C)C)cccc2o1` (stereo not shown) [CM 57215, Ethyl 5-(2-hydroxy-3-isopropylthiopropoxy)chromone-2-carboxylate], for which the change in vivo at 100 mg/kg in series [1] (setting [4]) is -75%. The LD50 in the series “LD50 mouse, os” is above 1000 mg/kg.

As for `CCOC(=O)c1cc(=O)c2c(OCC(O)CSCC)cccc2o1` (stereo not shown) [CM 57249, Ethyl 5-(2-hydroxy-3-ethylthiopropoxy)chromone-2-carboxylate], the change in vivo at 50 mg/kg in series [1] (setting [3]) was -73%. In series [1] (setting [4]), the change in vivo at 100 mg/kg is -75.8%. The same compound showed an LD50 in the series “LD50 mouse, os” above 1000 mg/kg.

`CCCSCC(O)COc1cccc2oc(C(=O)OCC)cc(=O)c12` (stereo not shown) [CM 57251, Ethyl 5-(2-hydroxy-3-propylthiopropoxy)chromone-2-carboxylate]: the change in vivo at 100 mg/kg in series [1] (setting [4]) is -69.1%. Further, the LD50 in the series “LD50 mouse, os” was above 1000 mg/kg.

Regarding `O=C(O)c1cc(=O)c2c(OCC(O)COc3cccc4oc(C(=O)O)cc(=O)c34)cccc2o1` [Product E, 1,3-bis-(2-carboxy-5-chromonyloxy)propane-2-ol sodium salt, reference compound], the ED50 is 1.15 mg/kg in series [2] (i.v., read-out: ED50) and “inactive” in series [2] (os).

On to `N#Cc1ccc(OCC(O)COc2cccc3oc(C(=O)O)cc(=O)c23)cc1` (stereo not shown) [Product F, 5-(2-hydroxy-3-p-cyanophenoxypropoxy)chromone-2-carboxylic acid, reference compound], for which the ED50 is 0.29 mg/kg in series [2] (i.v., read-out: ED50) and “inactive” in series [2] (os).

Regarding `O=C(O)c1ccc2oc3ccc(OCCO)cc3c(=O)c2c1` [product A, 7-(2-hydroxyethoxy)-9-oxoxanthene-2-carboxylic acid, reference compound], the change in vivo at 100 mg/kg in series [1] (setting [4]) is -66.2%. This compound showed an LD50 in the series “LD50 mouse, os” of around 1000 mg/kg.

In the case of `CC(=O)c1ccc(O)c(C(=O)O)c1` [product B, 5-acetylsalicylic acid, reference compound], in series [1] (setting [4]), the change in vivo at 100 mg/kg was -29.2%. In the series “LD50 mouse, os”, this compound returned an LD50 of around 1000 mg/kg.

On to `CCOC(=O)c1cc(=O)c2c(OCC(O)COC)cccc2o1` (stereo not shown) [product C, ethyl 5-(2-hydroxy-3-methoxypropoxy)chromone-2-carboxylate, reference compound], for which, in series [1] (po, Table II, 10 mg/kg, °° P ≤ 0.01, * non significant (product C), read-out: Δ % in comparison with controls (inhibition of passive cutaneous anaphylaxis)), the change in vivo at 10 mg/kg amounted to 8.71%.

For the compound `CSCC(O)COc1ccc2c(=O)cc(C(=O)O)oc2c1` (stereo not shown) [product D, 7-(2-hydroxy-3-methylthiopropoxy)chromone-2-carboxylic acid, reference compound], the change in vivo at 10 mg/kg in series [1] (setting [5]) amounted to 17.8%. For the same compound, in series [1] (setting [6]), the change in vivo at 100 mg/kg was -16.2%. Further, the change in vivo at 200 mg/kg in series [1] (po, Table III, 200 mg/kg, ° significant P ≤ 0.05, read-out: Δ % in comparison with controls (inhibition of passive cutaneous anaphylaxis)) is -30.1%.

For the origin of these results see patent US4282247A, “5-(2-Hydroxy-3-thiopropoxy) chromone-2-carboxylic acids chemical process and pharmaceutical compositions” (CM Industries, priority 1979, dated 1981).
